The results in this text go back to ChEMBL document CHEMBL3882391, “Substituted tricyclic compounds as protein kinase inhibitors” (2008).

For one test, the system named is COLO 320. The test is described as follows: Inhibition of cell proliferation of human COLO320 cells at 0.1 to 1000 uM after 4 days by MTS assay. It is filed as functional.
For another test, the system named is MCF7. Description: Inhibition of cell proliferation of human MCF7 cells at 0.1 to 1000 uM after 4 days by MTS assay. It is filed as functional, cell-based. Background: Tetrazolium assays rely on reduction of a dye to a coloured formazan, in cell work by metabolically active cells.
The test system of test [1] is MIA PaCa-2. The test is described as follows: Inhibition of cell proliferation of human MIAPaCa2 cells at 0.01 to 1000 uM after 4 days by MTS assay. It is filed as functional, cell-based.
The next test concerns A2780. Description: Inhibition of cell proliferation of human A2780 cells at 0.1 to 1000 uM after 4 days by MTS assay. It is filed as functional, cell-based.
The test system of another test is ASPC1. The test is described as follows: Inhibition of cell proliferation of human AsPC1 cells at 0.1 to 1000 uM after 4 days by MTS assay. It is filed as functional, cell-based.
For the next test, the system named is T47D. The test is described as follows: Inhibition of cell proliferation of human T47D cells at 0.1 to 1000 uM after 4 days by MTS assay. It is filed as functional, cell-based.
In another test the test system is Caco-2. The test is described as follows: Inhibition of cell proliferation of human Caco2 cells at 0.1 to 1000 uM after 4 days by MTS assay. It is filed as functional, cell-based.
The next test relates to MDA-MB-435. The test is described as follows: Inhibition of cell proliferation of human MDA-MB-435 cells at 0.1 to 1000 uM after 4 days by MTS assay. It is filed as functional, cell-based.
Test [2] concerns MIA PaCa-2. The test is described as follows: Inhibition of cell proliferation of human MIAPaCa2 cells at 3 to 300 uM after 48 hrs by hematocytometry. It is filed as functional, cell-based.
The next test deals with PANC-1. Description: Inhibition of cell proliferation of human PANC1 cells at 0.01 to 1000 uM after 4 days by MTS assay. It is filed as functional, cell-based.
Test [3] has as its target T1, Aurora kinase A (Homo sapiens) (UniProt O14965).
T1 sequence (whole entry): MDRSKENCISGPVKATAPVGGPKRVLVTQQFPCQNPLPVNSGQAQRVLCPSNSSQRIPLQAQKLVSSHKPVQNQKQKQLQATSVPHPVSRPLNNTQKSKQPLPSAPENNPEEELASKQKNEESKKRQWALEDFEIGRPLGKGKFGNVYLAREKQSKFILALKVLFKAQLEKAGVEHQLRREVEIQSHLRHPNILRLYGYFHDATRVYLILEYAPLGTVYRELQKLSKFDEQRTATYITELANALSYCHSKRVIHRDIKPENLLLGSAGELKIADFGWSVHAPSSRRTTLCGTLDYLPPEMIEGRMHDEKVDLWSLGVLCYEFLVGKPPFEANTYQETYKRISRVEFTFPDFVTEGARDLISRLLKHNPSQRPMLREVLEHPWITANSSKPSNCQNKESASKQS
The test is described as follows: Inhibition of human recombinant aurora-2 kinase expressed in Sf9 cells at 20 uM using kemptide as substrate by kinase-Glo luciferase assay.

The source made the active and inactive calls. No cut-off for these calls is given here.

On to `COc1cc2[nH]c3ncnc(N4CCN(C(=S)Nc5ccc(S(=O)(=O)Nc6ncccn6)cc5)CC4)c3c2cc1OC`, for which the inhibition entry in the test on COLO 320, in the test on MCF7, in the test with MIA PaCa-2 [1], with A2780, in the test on ASPC1 and with T47D was “Active” throughout. Further, the inhibition result with Caco-2, in the test with MDA-MB-435, in the test with MIA PaCa-2 [2] and with PANC-1 was “Active” in each case.
`COc1cc2ncnc(N3CCN(C(=S)Nc4ccc(S(=O)(=O)Nc5ncccn5)cc4)CC3)c2cc1OC`: the inhibition entry in test [3] was “Active”.
On the same count and under the same terms, next, `COc1cc2ncnc(Nc3cccc(Br)c3)c2cc1OC`: “Active”; `O=S(=O)(Nc1ncccn1)c1ccc(Nc2ncnc3c2sc2ncccc23)cc1`: “Active”; `O=S(=O)(Nc1ncccn1)c1ccc(Nc2ncnc3c2oc2ccccc23)cc1`: “Active”.
